Test results published in patent US20110281869A1, “TETRAHYDROISOQUINOLINES AS ANTIMALARIAL AGENTS” (priority 2008, published 2011).

These molecules were tested on P. falciparum K1 (assay: Plasmodium falciparum in vitro assay ([3H] hypoxanthine incorporation)). Conditions: Plasmodium falciparum, K1, read-out: IC50 (nM) on K1.
Assay type: cell-based
Protocol: In vitro antimalarial activity: Plasmodium falciparum in vitro assay In vitro activity against erythrocytic stages of P. falciparum is determined using a [^3H] hypoxanthine incorporation assay. One strain resistant to chloroquine and pyrimethamine (P. falciparum K1) is used in the assays, and all test compounds are compared for activity with the standard drugs chloroquine (sigma C6628) and artemisinin (sigma-36, 159-3). Compounds are diluted in DMSO to 1 mM and added to parasite cultures incubated in RPMI 1640 medium without hypoxanthine, supplemented with HEPES (5.94 g/L), NaHCO3 (2.1 g/L), neomycin (100 U/mL), Albumax (5 g/L) and washed human red cells at 2.5% hematocrit (0.3% parasitaemia). Seven serial doubling dilutions of each drug are prepared in 96-well microtitre plates and incubated in a humidifying atmosphere at 37° C.; 4% CO2, 3% O2, 93% N2.
After 48 h, 50 μl of [^3H] hypoxanthine (0.5 μCi) is added to each well of a plate. The plates are incubated for a further 24 h under the same conditions. The plates are then harvested with a Betaplate cell harvester (Wallac) and washed with distilled water. The dried filters are inserted into a plastic foil with 10 mL of scintillation fluid, and counted in a Betaplate liquid scintillation counter. IC50 values are calculated from sigmoidal inhibition curves using Microsoft Excel.
In the case of `CCN(CC)CCCC(C)Nc1ccnc2cc(Cl)ccc12` (centres unmarked) [Chloroquine, chloroquine, reference compound], the IC50 is reported as 300 nM.

Same assay, conditions: Plasmodium falciparum; erythrocytic stages, strain K1 resistant to chloroquine and pyrimethamine, human red cells; read-out: IC50 (nM) on K1
Molecule `Cc1c(C=CC(=O)N(Cc2ccc(-c3ncccn3)cc2)[C@@H](Cc2ccccc2)C(=O)N2CCc3ccccc3C2)cnn1C` [Example 99, (S)—N-[1-Benzyl-2-(3,4-dihydro-1H-isoquinolin-2-yl)-2-oxo-ethyl]-3-(1,5-dimethyl-1H-pyrazol-4-yl)-N-(4-pyrimidin-2-yl-benzyl)-acrylamide] has an IC50 of 29 nM. Work on `O=C([C@H](Cc1ccccc1)N(Cc1ccc(-c2ccccn2)cc1)C(=O)C=Cc1ccc(C(F)(F)F)nc1)N1CCc2cc(F)ccc2C1` [Example 78, (S)—N-[1-Benzyl-2-(6-fluoro-3,4-dihydro-1H-isoquinolin-2-yl)-2-oxo-ethyl]-N-(4-pyridin-2-yl-benzyl)-3-(6-trifluoromethyl-pyridin-3-yl)-acrylamide] yielded an IC50 of 52 nM. With `Cc1ccc(C=CC(=O)N(Cc2ccc(N3CCOCC3)cc2)[C@@H](Cc2ccccc2)C(=O)N2CCc3ccccc3C2)cn1` [Example 218, (S)—N-[1-Benzyl-2-(3,4-dihydro-1H-isoquinolin-2-yl)-2-oxo-ethyl]-3-(6-methyl-pyridin-3-yl)-N-(4-morpholin-4-yl-benzyl)-acrylamide] the IC50 was 31 nM. `Cc1nn(C)c(C)c1C=CC(=O)N(Cc1ccc(-c2cnccn2)cc1)[C@@H](Cc1ccccc1)C(=O)N1CCc2ccccc2C1` [Example 119, (S)—N-[1-Benzyl-2-(3,4-dihydro-1H-isoquinolin-2-yl)-2-oxo-ethyl]-N-(4-pyrazin-2-yl-benzyl)-3-(1,3,5-trimethyl-1H-pyrazol-4-yl)-acrylamide] was tested, and the IC50 was 5 nM. In the case of `COc1ccc(C=CC(=O)N(Cc2ccc(N3CCOCC3)cc2)[C@@H](Cc2ccccc2)C(=O)N2CCc3ccccc3C2)cn1` [Example 220, (S)—N-[1-Benzyl-2-(3,4-dihydro-1H-isoquinolin-2-yl)-2-oxo-ethyl]-3-(6-methoxy-pyridin-3-yl)-N-(4-morpholin-4-yl-benzyl)-acrylamide], the IC50 is reported as 10 nM. With `Cc1ncsc1C=CC(=O)N(Cc1ccc(-c2ncccn2)cc1)[C@@H](Cc1ccccc1)C(=O)N1CCc2ccccc2C1` [Example 104, (S)—N-[1-Benzyl-2-(3,4-dihydro-1H-isoquinolin-2-yl)-2-oxo-ethyl]-3-(4-methyl-thiazol-5-yl)-N-(4-pyrimidin-2-yl-benzyl)-acrylamide] the IC50 was 84 nM. For `Cn1ccc(CC(C(=O)N2CCc3ccccc3C2)N(Cc2ccc(-c3ccncc3)cc2)C(=O)C=Cc2ccc(C(F)(F)F)cc2)n1` (racemic) [Example 82, rac-N-[2-(3,4-Dihydro-1H-isoquinolin-2-yl)-1-(1-methyl-1H-pyrazol-3-ylmethyl)-2-oxo-ethyl]-N-(4-pyridin-4-yl-benzyl)-3-(4-trifluoromethyl-phenyl)-acrylamide], the IC50 was 24 nM. For `C[C@@H]1CC[C@H]2[C@@H](C)C(=O)O[C@@H]3O[C@@]4(C)CC[C@@H]1[C@]32OO4` [Artemisinin, artemisinin, reference compound], the IC50 was 2 nM. For `Cc1noc(C)c1C=CC(=O)N(Cc1ccc(-c2cncnc2)cc1)[C@@H](Cc1ccccc1)C(=O)N1CCc2ccccc2C1` [Example 235, (S)—N-[1-Benzyl-2-(3,4-dihydro-1H-isoquinolin-2-yl)-2-oxo-ethyl]-3-(3,5-dimethyl-isoxazol-4-yl)-N-(4-pyrimidin-5-yl-benzyl)-acrylamide], the IC50 was 26 nM. Work on `Cc1nn(C)c(C)c1C=CC(=O)N(Cc1ccc(-n2ccnn2)cc1)[C@@H](Cc1ccccc1)C(=O)N1CCc2ccccc2C1` [Example 157, (S)—N-[1-Benzyl-2-(3,4-dihydro-1H-isoquinolin-2-yl)-2-oxo-ethyl]-N-(4-[1,2,3]-triazol-1-yl-benzyl)-3-(1,3,5-trimethyl-1H-pyrazol-4-yl)-acrylamide] yielded an IC50 of 2 nM. Work on `COc1ccc(C=CC(=O)N(Cc2ccc(-c3ccccn3)cc2)[C@@H](Cc2ccccc2)C(=O)N2CCc3ccccc3C2)cn1` [Example 62, (S)—N-[1-Benzyl-2-(3,4-dihydro-1H-isoquinolin-2-yl)-2-oxo-ethyl]-3-(6-methoxy-pyridin-3-yl)-N-(4-pyridin-2-yl-benzyl)-acrylamide] yielded an IC50 of 10 nM. `O=C([C@H](Cc1ccccc1)N(Cc1ccc(-c2cnccn2)cc1)C(=O)C=Cc1ccc(Cl)nc1)N1CCc2ccccc2C1` [Example 111, (S)—N-[1-Benzyl-2-(3,4-dihydro-1H-isoquinolin-2-yl)-2-oxo-ethyl]-3-(6-chloro-pyridin-3-yl)-N-(4-pyrazin-2-yl-benzyl)-acrylamide] gave an IC50 of 35 nM. `O=C([C@H](Cc1ccccc1)N(Cc1ccc(-c2cncnc2)cc1)C(=O)C=Cc1ccc(C(F)(F)F)nc1)N1CCc2ccccc2C1` [Example 4, (S)—N-[1-Benzyl-2-(3,4-dihydro-1H-isoquinolin-2-yl)-2-oxo-ethyl]-N-(4-pyrimidin-5-yl-benzyl)-3-(6-trifluoromethyl-pyridin-3-yl)-acrylamide] gave an IC50 of 5 nM. `O=C([C@H](Cc1ccccc1)N(Cc1ccc(-n2cncn2)cc1)C(=O)C=Cc1ccc(Cl)nc1)N1CCc2ccccc2C1` [Example 167, (S)—N-[1-Benzyl-2-(3,4-dihydro-1H-isoquinolin-2-yl)-2-oxo-ethyl]-3-(6-chloro-pyridin-3-yl)-N-(4-[1,2,4]-triazol-1-yl-benzyl)-acrylamide] gave an IC50 of 8 nM. `Cc1nc(C)c(C=CC(=O)N(Cc2ccc(N3CCOCC3)cc2)[C@@H](Cc2ccccc2)C(=O)N2CCc3ccccc3C2)s1` [Example 251, (S)—N-[1-Benzyl-2-(3,4-dihydro-1H-isoquinolin-2-yl)-2-oxo-ethyl]-3-(2,4-dimethyl-thiazol-5-yl)-N-(4-morpholin-4-yl-benzyl)-acrylamide] showed an IC50 of 42 nM. `Cc1nc(C)c(C=CC(=O)N(Cc2ccc(-c3cccnn3)cc2)[C@@H](Cc2ccccc2)C(=O)N2CCc3ccccc3C2)s1` [Example 145, (S)—N-[1-Benzyl-2-(3,4-dihydro-1H-isoquinolin-2-yl)-2-oxo-ethyl]-3-(2,4-dimethyl-thiazol-5-yl)-N-(4-pyridazin-3-yl-benzyl)-acrylamide] was tested, and the IC50 was 13 nM. `Cn1ccc(C=CC(=O)N(Cc2ccc(-c3ccncc3)cc2)[C@@H](Cc2ccccc2)C(=O)N2CCc3ccccc3C2)n1` [Example 243, (S)—N-[1-Benzyl-2-(3,4-dihydro-1H-isoquinolin-2-yl)-2-oxo-ethyl]-3-(1-methyl-1H-pyrazol-3-yl)-N-(4-pyridin-4-yl-benzyl)-acrylamide] showed an IC50 of under 7.8 nM. In the case of `Cc1nc(C=CC(=O)N(Cc2ccc(-c3cncnc3)cc2)[C@@H](Cc2ccccc2)C(=O)N2CCc3ccccc3C2)c(C)o1` [Example 253, (S)—N-[1-Benzyl-2-(3,4-dihydro-1H-isoquinolin-2-yl)-2-oxo-ethyl]-3-(2,5-dimethyl-oxazol-4-yl)-N-(4-pyrimidin-5-yl-benzyl)-acrylamide], the IC50 is reported as 70 nM. With `O=C([C@H](Cc1ccccc1)N(Cc1ccc(-c2cncnc2)cc1)C(=O)C=Cc1ccc(Cl)nc1)N1CCc2ccccc2C1` [Example 228, (S)—N-[1-Benzyl-2-(3,4-dihydro-1H-isoquinolin-2-yl)-2-oxo-ethyl]-3-(6-chloro-pyridin-3-yl)-N-(4-pyrimidin-5-yl-benzyl)-acrylamide] the IC50 was 8.5 nM. Molecule `COc1ccc2c(c1)CN(C(=O)[C@H](Cc1ccccc1)N(Cc1ccc(-c3ccccn3)cc1)C(=O)C=Cc1ccc(C(F)(F)F)cc1)CC2` [Example 69, (S)—N-[1-Benzyl-2-(7-methoxy-3,4-dihydro-1H-isoquinolin-2-yl)-2-oxo-ethyl]-N-(4-pyridin-2-yl-benzyl)-3-(4-trifluoromethyl-phenyl)-acrylamide] has an IC50 of 12 nM. Molecule `Cc1noc(C)c1C=CC(=O)N(Cc1ccc(N2CCOCC2)cc1)[C@@H](Cc1ccccc1)C(=O)N1CCc2ccccc2C1` [Example 224, (S)—N-[1-Benzyl-2-(3,4-dihydro-1H-isoquinolin-2-yl)-2-oxo-ethyl]-3-(3,5-dimethyl-isoxazol-4-yl)-N-(4-morpholin-4-yl-benzyl)-acrylamide] has an IC50 of 18 nM. Molecule `Cc1nc(C)c(C=CC(=O)N(Cc2ccc(-c3ccncc3)cc2)[C@@H](Cc2ccccc2)C(=O)N2CCc3ccccc3C2)s1` [Example 247, (S)—N-[1-Benzyl-2-(3,4-dihydro-1H-isoquinolin-2-yl)-2-oxo-ethyl]-3-(2,4-dimethyl-thiazol-5-yl)-N-(4-pyridin-4-yl-benzyl)-acrylamide] has an IC50 of 4 nM. `O=C([C@H](Cc1ccccc1)N(Cc1ccc(-c2ccccn2)cc1)C(=O)C=Cc1ccc(C(F)(F)F)cc1)N1CCc2cc(F)ccc2C1` [Example 10, (S)—N-[1-Benzyl-2-(6-fluoro-3,4-dihydro-1H-isoquinolin-2-yl)-2-oxo-ethyl]-N-(4-pyridin-2-yl-benzyl)-3-(4-trifluoromethyl-phenyl)-acrylamide] gave an IC50 of 14 nM.

Same assay, conditions: erythrocytic stages, strain K1 resistant to chloroquine and pyrimethamine, human red cells; read-out: IC50 (nM) on K1
In the case of `Cc1ccc(C=CC(=O)N(Cc2ccc(-c3ccccn3)cc2)[C@@H](Cc2ccccc2)C(=O)N2CCc3ccccc3C2)cc1` [Example 32, (S)—N-[1-Benzyl-2-(3,4-dihydro-1-H-isoquinolin-2-yl)-2-oxo-ethyl]-N-(4-pyridin-2-yl-benzyl)-3-p-tolyl-acrylamide], the IC50 is reported as 7.5 nM. `O=C([C@H](Cc1ccccc1)N(Cc1ccc(-c2ccccn2)cc1)C(=O)C=Cc1cccc(Cl)c1Cl)N1CCc2ccccc2C1` [Example 25, (S)—N-[1-Benzyl-2-(3,4-dihydro-1-H-isoquinolin-2-yl)-2-oxo-ethyl]-3-(2,3-dichloro-phenyl)-N-(4-pyridin-2-yl-benzyl)-acrylamide] gave an IC50 of 13 nM.
